# Reference: US8648103B2, “Nitrogen-containing aromatic heterocyclyl compound” (Daiichi Sankyo Company, Limited, priority 2008, dated 2014)
# Test system: Human subcutaneous adipocytes
# Assay: Adipocyte lipolysis assay (suppression of isoproterenol-stimulated fatty acid release)
# Format: cell-based
# Details: Homo sapiens, Adipocyte; test compound concentration giving 50% fatty acid concentration reduction percentage in culture supernatant; 1 μM isoproterenol, 5 hours incubation; reduction by 100 μM nicotinic acid set at 100%
# Text: The suppressive or promoting activity of a test compound on the lipolysis of neutral fat can be assayed according to an adipocyte lipolysis assay as a cell line assay. If a beta adrenoceptor is stimulated with isoproterenol or the like in adipocytes, lipolysis action in which neutral fat accumulated in the cells is decomposed into fatty acid and glycerol can be promoted, and as a result, the amount of such fatty acid or glycerol released out of the cells can be increased. When a test compound that suppresses lipolysis is added to adipocytes, lipolysis-promoting action by isoproterenol stimulation is reduced, and the concentration of fatty acid or glycerol in a medium is decreased. Accordingly, the suppressive activity of a test compound on lipolysis can be assayed by measuring the reduction percentage of the fatty acid concentration or glycerol concentration in a culture supernatant. Likewise, the promoting activity of a test compound on lipolysis can be assayed by measuring the increase percentage of the fatty acid concentration or glycerol concentration in a medium.
# • (1) Human subcutaneous adipocytes disseminated onto a 96 well (Dainippon Sumitomo Pharma Co., Ltd.: F-SA-1096) • (2) Adipocyte Maintenance Medium (Dainippon Sumitomo Pharma Co., Ltd.: AM 1) • (3) Lipolysis assay buffer [137 mM NaCl, 5 mM KCl, 4.2 mM NaHCO3, 1.3 mM CaCl2, 0.5 mM KH2PO4, 0.5 mM MgCl2, 0.5 mM MgSO4, 5 mM Glucose, 20 mM Hepes (pH 7.4), 1% BSA, 1 μM Isoproterenol] • (4) NEFA-C Test Wako (Wako Pure Chemical Industries, Ltd.) Preparation of Screening Materials
# In this operation, the actual concentration of the test compound in the buffer was 1/1000 of the above-described concentration.
# The above-described subcutaneous adipocytes were cultured in 200 μL of an Adipocyte Maintenance Medium in each well for 7 days. During this culturing operation, the medium was exchanged with a fresh one every 3 days. The medium was exchanged by discarding 100 μL of the medium in each well and then adding 100 μL of a fresh Adipocyte Maintenance Medium to the well. Thereafter, the adipocytes were washed with a Lipolysis assay buffer. Subsequently, 50 μL of a Lipolysis assay buffer that contained the above-described test compound was added to each well, and it was then incubated for 5 hours. In order to obtain the measurement value of the test compound in each concentration, 5 wells on a 96-well plate were used with respect to each concentration. As a positive control of a compound having lipolysis suppressive activity, nicotinic acid was used with reference to a previous report [Green A et. al., J. Biol. Chem., 1992, 267(5), 3223-9].
# 40 μL of a culture supernatant was extracted from each well, and the fatty acid concentration in the supernatant was then measured. Such fatty acid concentration was measured as follows, using the above-described NEFA-C Test Wako. 80 μL of liquid A included in the kit was added to 40 μL of the culture supernatant extracted from each well, and the obtained mixture was then incubated at 37° C. for 10 minutes. Thereafter, 160 μL of liquid B was added, and the obtained mixture was further incubated at 37° C. for 10 minutes. Thereafter, the absorbance at a wavelength of 550 nm was measured. At the same time, a standard fatty acid solution included in the kit was diluted to prepare a dilution series having a volume of 40 μL. According to the same operations as described above, liquid A and liquid B were added, and the absorbance was then measured. In accordance with instructions included with the kit, a calibration curve was prepared. Based on the thus prepared calibration curve, the fatty acid concentration in the culture supernatant was calculated. The reduction percentage of the fatty acid concentration was calculated with the following formula, setting the reduction percentage obtained by addition of 100 μM (final concentration) of nicotinic acid at 100%. […]
row,IC50 [nM],Compound
1,20,"CCn1cc(NC(=O)CCc2noc(-c3ccc(O)cc3)c2Cl)c(C(=O)O)c1 [Example 34, 4-{3-[5-(4-Hydroxyphenyl)-4-chloroisoxazol-3-yl]propanoyl}amino-1-ethylpyrrole-3-carboxylic acid]"
2,8,"CCc1c(-c2ccc(O)cc2)noc1CCC(=O)Nc1cn(CC)cc1C(=O)O [Example 35, 4-{3-[4-Ethyl-(4-hydroxyphenyl)isoxazol-5-yl]propanoyl}amino-1-ethylpyrrole-3-carboxylic acid]"
3,13,"CCn1cc(NC(=O)C(F)Cc2sc(-c3ccc(O)cc3)nc2Cl)c(C(=O)O)c1 (centres unmarked) [Example 37, 4-{3-[4-Chloro-2-(4-hydroxyphenyl)thiazol-5-yl]-2-fluoropropanoyl}amino-1-ethylpyrrole-3-carboxylic acid]"
4,4,"CCn1cc(NC(=O)CCc2onc(-c3ccc(O)cc3)c2C)c(C(=O)O)c1 [Example 38, 4-{3-[(4-Hydroxyphenyl)-4-methylisoxazol-5-yl]propanoyl}amino-1-ethylpyrrole-3-carboxylic acid]"
5,40,"CCn1cc(NC(=O)C(F)(F)Cc2cnc(-c3ccc(O)cc3)s2)c(C(=O)O)c1 [Example 39, 4-{3-[2-(4-Hydroxyphenyl)thiazol-5-yl]-2,2-difluoropropanoyl}amino-1-ethylpyrrole-3-carboxylic acid]"
6,7,"CCn1cc(NC(=O)CCc2onc(-c3ccc(O)cc3F)c2Cl)c(C(=O)O)c1 [Example 43, 4-{3-[4-Chloro-3-(4-hydroxy-2-fluorophenyl)isoxazol-5-yl]propanoyl}amino-1-ethylpyrrole-3-carboxylic acid]"
7,8,"CCn1cc(NC(=O)CCc2cc(-c3ccc(O)cc3)no2)c(C(=O)O)c1 [Example 44, 4-{3-[3-(4-Hydroxyphenyl)isoxazol-5-yl]propanoyl}amino-1-ethylpyrrole-3-carboxylic acid]"
8,9,"CCc1c(-c2ccc(O)cc2F)noc1CCC(=O)Nc1cn(CC)cc1C(=O)O [Example 45, 4-{3-[4-Ethyl-3-(4-hydroxy-2-fluorophenyl)isoxazol-5-yl]propanoyl}amino-1-ethylpyrrole-3-carboxylic acid]"
9,8,"CCCCn1cc(NC(=O)CCc2cc(-c3ccc(O)cc3)no2)c(C(=O)O)c1 [Example 47, 4-{3-[3-(4-Hydroxyphenyl)isoxazol-5-yl]propanoyl}amino-1-butylpyrrole-3-carboxylic acid]"
10,1000,"CC(C)n1cc(NC(=O)CCc2nc(-c3ccc(O)cn3)no2)c(C(=O)O)c1 [Example 48, 4-{3-[3-(5-Hydroxypyridin-2-yl)-1,2,4-oxadiazol-5-yl]propanoyl}amino-1-isopropylpyrrole-3-carboxylic acid]"
11,135,"O=C(CCc1nc(-c2ccc(O)cc2)no1)Nc1cn(Cc2ccccc2)cc1C(=O)O [Example 49, 4-{3-[3-(4-Hydroxyphenyl)-1,2,4-oxadiazol-5-yl]propanoyl}amino-1-benzylpyrrole-3-carboxylic acid]"
12,823,"CCCCn1cc(NC(=O)CCc2nc(-c3ccc(O)cc3)no2)c(C(=O)O)c1C [Example 50, 4-{3-[3-(4-Hydroxyphenyl)-1,2,4-oxadiazol-5-yl]propanoyl}amino-1-butyl-2-methylpyrrole-3-carboxylic acid]"
13,264,"CCCCn1cc(C(=O)O)c(NC(=O)CCc2nc(-c3ccc(O)cc3)no2)c1C#N [Example 51, 4-{3-[3-(4-Hydroxyphenyl)-1,2,4-oxadiazol-5-yl]propanoyl}amino-5-cyano-1-butylpyrrole-3-carboxylic acid]"
14,771,"CCCCn1cc(NC(=O)CCc2nc(-c3ccc(O)cc3)no2)c(C(=O)O)c1Cl [Example 52, 4-{3-[3-(4-Hydroxyphenyl)-1,2,4-oxadiazol-5-yl]propanoyl}amino-2-chloro-1-butylpyrrole-3-carboxylic acid]"
15,138,"CCn1cc(NC(=O)CCc2noc(-c3ccc(O)cc3)c2C(F)(F)F)c(C(=O)O)c1 [Example 53, 4-{3-[4-Trifluoromethyl-5-(4-hydroxyphenyl)isoxazol-3-yl]propanoyl}amino-1-ethylpyrrole-3-carboxylic acid]"
16,228,"CCn1cc(NC(=O)C(C)Cc2cnc(-c3ccc(O)cc3)s2)c(C(=O)O)c1 (centres unmarked) [Example 54, 4-{3-[2-(4-Hydroxyphenyl)thiazol-5-yl]-2-methylpropanoyl}amino-1-ethylpyrrole-3-carboxylic acid]"
17,10,"CCn1cc(NC(=O)CCc2nnc(-c3ccc(O)cc3)s2)c(C(=O)O)c1 [Example 55, 4-{3-[5-(4-Hydroxyphenyl)[1,3,4]thiadiazole-2-yl]propanoyl}amino-1-ethylpyrrole-3-carboxylic acid]"
18,101,"CCn1cc(NC(=O)CCc2cnn(-c3ccc(O)cc3)c2C(C)C)c(C(=O)O)c1 [Example 56, 4-{3-[1-(4-Hydroxyphenyl)-5-isopropylpyrazol-4-yl]propanoylamino}-1-ethylpyrrole-3-carboxylic acid]"
19,161,"CCn1cc(NC(=O)CCc2snc(-c3ccc(O)cc3)c2Cl)c(C(=O)O)c1 [Example 57, 4-{3-[4-Chloro-3-(4-hydroxyphenyl)isothiazol-5-yl]propanoylamino}-1-ethylpyrrole-3-carboxylic acid]"
20,72,"CCc1c(-c2ccc(O)cc2)nsc1CCC(=O)Nc1cn(CC)cc1C(=O)O [Example 58, 4-{3-[4-Ethyl-3-(4-hydroxyphenyl)isothiazol-5-yl]propanoylamino}-1-ethylpyrrole-3-carboxylic acid]"
21,22,"CCCn1cc(NC(=O)CCc2cc(-c3ccc(O)cc3)no2)c(C(=O)O)c1 [Example 61, 4-{3-[3-(4-Hydroxyphenyl)isoxazol-5-yl]propanoyl}amino-1-propylpyrrole-3-carboxylic acid]"
22,28,"CCn1cc(NC(=O)C(F)Cc2cc(-c3ccc(O)cc3)no2)c(C(=O)O)c1 (centres unmarked) [Example 62, 4-{3-[3-(4-Hydroxyphenyl)isoxazol-5-yl]-2-fluoropropanoyl}amino-1-ethylpyrrole-3-carboxylic acid]"
23,13,"CCn1cc(NC(=O)C(F)(F)Cc2cc(-c3ccc(O)cc3)no2)c(C(=O)O)c1 [Example 63, 4-{3-[3-(4-Hydroxyphenyl)isoxazol-5-yl]-2,2-difluoropropanoyl}amino-1-ethylpyrrole-3-carboxylic acid]"
24,29,"CCn1cc(NC(=O)C(F)(F)Cc2cc(-c3ccc(O)cc3)on2)c(C(=O)O)c1 [Example 64, 4-{3-[5-(4-Hydroxyphenyl)isoxazol-3-yl]-2,2-difluoropropanoyl}amino-1-ethylpyrrole-3-carboxylic acid]"
25,18,"CCn1cc(NC(=O)CCc2onc(-c3ccc(O)cc3)c2C(F)F)c(C(=O)O)c1 [Example 65, 4-{3-[4-Difluoromethyl-3-(4-hydroxyphenyl)isoxazol-5-yl]propanoyl}amino-1-ethylpyrrole-3-carboxylic acid]"
26,10,"CCc1c(-c2ccc(O)cn2)noc1CC(F)(F)C(=O)Nc1cn(CC)cc1C(=O)O [Example 66, 4-{3-[4-Ethyl-3-(5-hydroxypyridin-2-yl)isoxazol-5-yl]-2,2-difluoropropanoyl}amino-1-ethylpyrrole-3-carboxylic acid]"
